Each structure is given as a SMILES string. Where only a bound is given, the exact number is not on record here.

Usually EC50 stands for the concentration needed to bring the measured effect to its halfway point.

The target in the test is T1, apelin receptor (APJ) (Homo sapiens, UniProt P35414).
T1 sequence (P35414 1-380): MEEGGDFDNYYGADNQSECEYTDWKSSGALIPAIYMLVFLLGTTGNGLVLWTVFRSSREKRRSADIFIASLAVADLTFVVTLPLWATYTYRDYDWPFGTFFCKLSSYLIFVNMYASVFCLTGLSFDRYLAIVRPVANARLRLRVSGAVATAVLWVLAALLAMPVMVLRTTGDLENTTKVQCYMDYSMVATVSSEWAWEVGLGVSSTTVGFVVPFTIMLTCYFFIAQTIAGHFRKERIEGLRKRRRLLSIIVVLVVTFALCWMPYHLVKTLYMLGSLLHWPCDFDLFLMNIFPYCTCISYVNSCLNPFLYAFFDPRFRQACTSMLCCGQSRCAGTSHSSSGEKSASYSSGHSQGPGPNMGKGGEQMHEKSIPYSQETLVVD
The experiment in a line: In vitro apelin agonist activity (methods of Giddings et al., Apelin-13 as positive control). In kind it is cell-based. Particulars: in vitro apelin agonist activity, methods of Giddings et al., Apelin-13 as positive control; read-out: EC50 (nM) Ave. The text has this: Characterization of the Apelin Agonist Activity of the Compounds
1:39-47, the contents of which are hereby incorporated by reference in its entirety. Using the methods described in Giddings et al. and Apelin-13 as a positive control.
On to `CCc1ccccc1-c1cc(C(=O)N[C@@H](CCN2CCC(F)(F)CC2)CC(=O)O)nn1C1CCCC1` [compound 405, (3S)-3-{[1-cyclopentyl-5-(2-ethylphenyl)-1H-pyrazol-3-yl]formamido}-5-(4,4-difluoropiperidin-1-yl)pentanoic acid], for which the concentration giving a half-maximal response (EC50) came to 227 nM. Consider `CCc1ccccc1-c1cc(C(=O)N[C@@H](CCN2CCCCC2)CC(=O)Nc2nccs2)nn1C1CCCC1` [compound 406, (3S)-3-{[1-cyclopentyl-5-(2-ethylphenyl)-1H-pyrazol-3-yl]formamido}-5-(piperidin-1-yl)-N-(1,3-thiazol-2-yl)pentanamide], for which the EC50 came to 22 nM. Regarding `O=C(C[C@H](CCN1CCCCC1)NC(=O)c1cc(-c2ccccc2Cl)n(C2CCCC2)n1)NC1CCC1` [compound 407, (3S)-3-{[5-(2-chlorophenyl)-1-cyclopentyl-1H-pyrazol-3-yl]formamido}-N-cyclobutyl-5-(piperidin-1-yl)pentanamide], the EC50 came out at 162 nM. The value for `O=C(C[C@H](CCN1CCCCC1)NC(=O)c1cc(-c2ccccc2C(F)(F)F)n(C2CCCC2)n1)NC1CCC1` [compound 408, (3S)-N-cyclobutyl-3-({1-cyclopentyl-5-[2-(trifluoromethyl)phenyl]-1H-pyrazol-3-yl]formamido)-5-(piperidin-1-yl)pentanamide] was 64 nM; that for `CCc1ccccc1-c1cc(C(=O)N[C@@H](CCN2CCC(F)(F)CC2)CC(=O)Nc2nccs2)nn1C1CCCC1` [compound 409, (3S)-3-{[1-cyclopentyl-5-(2-ethylphenyl)-1H-pyrazol-3-yl]formamido}-5-(4,4-difluoropiperidin-1-yl)-N-(1,3-thiazol-2-yl)pentanamide] was 12.5 nM; that for `CCc1ccccc1-c1cc(C(=O)N[C@@H](CCN2CCC(F)(F)CC2)CC(=O)NC2CCC2)nn1C1CCCC1` [compound 411, (3S)-N-cyclobutyl-3-{[1-cyclopentyl-5-(2-ethylphenyl)-1H-pyrazol-3-yl]formamido}-5-(4,4-difluoropiperidin-1-yl)pentanamide] was 14.5 nM. Consider `CCc1ccccc1-c1cc(C(=O)N[C@@H](CCN2CCCC(F)(F)C2)CC(=O)NC2CCC2)nn1C1CCCC1` [compound 412, (3S)-N-cyclobutyl-3-{[1-cyclopentyl-5-(2-ethylphenyl)-1H-pyrazol-3-yl]formamido}-5-(3,3-difluoropiperidin-1-yl)pentanamide], for which the EC50 worked out at 5 nM. To `O=C(C[C@H](CCN1CCCCC1)NC(=O)c1cc(-c2ccccc2C2CC2)n(C2CCCC2)n1)NC1CCC1` [compound 413, (3S)-N-cyclobutyl-3-{[1-cyclopentyl-5-(2-cyclopropylphenyl)-1H-pyrazol-3-yl]formamido}-5-(piperidin-1-yl)pentanamide] belongs 49 nM; to `COc1cccc(OC)c1-c1cc(C(=O)N[C@@H](CCN2CCCCC2)Cc2nnc[nH]2)nn1C1CCCC1` [compound 414], 200 nM; to `COc1cccc(OC)c1-c1cc(C(=O)N[C@@H](/C=C/c2ccc(F)cc2)CC(=O)NC2CCC2)nn1C1CCCC1` [compound 415, (3R,4E)-N-cyclobutyl-3-{[1-cyclopentyl-5-(2,6-dimethoxyphenyl)-1H-pyrazol-3-yl]formamido}-5-(4-fluorophenyl)pent-4-enamide], 292 nM. In the case of `COc1cccc(OC)c1-c1cc(C(=O)N[C@@H](CCc2ccc(F)cc2)CC(=O)NC2CCC2)nn1C1CCCC1` [compound 416, (3S)-N-cyclobutyl-3-{[1-cyclopentyl-5-(2,6-dimethoxyphenyl)-1H-pyrazol-3-yl]formamido}-5-(4-fluorophenyl)pentanamide], the EC50 came to 606 nM. The value for `COc1cccc(OC)c1-c1cc(C(=O)N[C@@H](CCc2ccc(F)cc2)CC(=O)Nc2nccs2)nn1C1CCCC1` [compound 417, (3S)-3-{[1-cyclopentyl-5-(2,6-dimethoxyphenyl)-1H-pyrazol-3-yl]formamido}-5-(4-fluorophenyl)-N-(1,3-thiazol-2-yl)pentanamide] was 36 nM; that for `COc1cccc(OC)c1-c1cc(C(=O)N[C@@H](/C=C/c2cccnc2)CC(=O)NC2CCC2)nn1C1CCCC1` [compound 418, (3R,4E)-N-cyclobutyl-3-{[1-cyclopentyl-5-(2,6-dimethoxyphenyl)-1H-pyrazol-3-yl]formamido}-5-(pyridin-3-yl)pent-4-enamide] was 664 nM; that for `COc1cccc(OC)c1-c1cc(C(=O)N[C@@H](/C=C/c2ccncc2)CC(=O)NC2CCC2)nn1C1CCCC1` [compound 419, (3R,4E)-N-cyclobutyl-3-{[1-cyclopentyl-5-(2,6-dimethoxyphenyl)-1H-pyrazol-3-yl]formamido}-5-(pyridin-4-yl)pent-4-enamide] was above 10000 nM. In the case of `COc1cccc(OC)c1-c1cc(C(=O)N[C@@H](CCc2cccnc2)CC(=O)NC2CCC2)nn1C1CCCC1` [compound 420, (3S)-N-cyclobutyl-3-{[1-cyclopentyl-5-(2,6-dimethoxyphenyl)-1H-pyrazol-3-yl]formamido}-5-(pyridin-3-yl)pentanamide], the EC50 is 883 nM.

Turning to `COc1cccc(OC)c1-c1cc(C(=O)N[C@@H](CCC2CCN(C)CC2)CC(=O)NC2CCC2)nn1C1CCCC1` [compound 421, (3S)-N-cyclobutyl-3-{[1-cyclopentyl-5-(2,6-dimethoxyphenyl)-1H-pyrazol-3-yl]formamido}-5-(1-methylpiperidin-4-yl)pentanamide], the EC50 was 3310 nM. For the compound `O=C(O)C[C@H](CCN1CCC(F)(F)CC1)NC(=O)c1cc(-c2ccccc2C(F)(F)F)n(C2CCCC2)n1` [compound 424, (3S)-3-({1-cyclopentyl-5-[2-(trifluoromethyl)phenyl]-1H-pyrazol-3-yl}formamido)-5-(4,4-difluoropiperidin-1-yl)pentanoic acid], the EC50 was 110 nM.

In the case of `O=C(C[C@H](CCN1CCCC(F)(F)C1)NC(=O)c1cc(-c2ccccc2C(F)(F)F)n(C2CCCC2)n1)NC1CCC1` [compound 425, (3S)-N-cyclobutyl-3-({1-cyclopentyl-5-[2-(trifluoromethyl)phenyl]-1H-pyrazol-3-yl}formamido)-5-(3,3-difluoropiperidin-1-yl)pentanamide], the EC50 amounted to 10.9 nM.

With `O=C(C[C@H](CCN1CCCC(F)(F)C1)NC(=O)c1cc(-c2ccccc2C(F)(F)F)n(C2CCCC2)n1)Nc1nccs1` [compound 426, (3S)-3-({1-cyclopentyl-5-[2-(trifluoromethyl)phenyl]-1H-pyrazol-3-yl}formamido)-5-(3,3-difluoropiperidin-1-yl)-N-(1,3-thiazol-2-yl)pentanamide], the concentration giving a half-maximal response (EC50) stood at 10.6 nM. For `O=C(C[C@H](CCN1CCCC(F)(F)C1)NC(=O)c1cc(-c2ccccc2C(F)(F)F)n(C2CCCC2)n1)Nc1ncco1` [compound 427, (3S)-3-({1-cyclopentyl-5-[2-(trifluoromethyl)phenyl]-1H-pyrazol-3-yl}formamido)-5-(3,3-difluoropiperidin-1-yl)-N-(1,3-oxazol-2-yl)pentanamide], the EC50 worked out at 8.5 nM. For `CC(F)(F)c1ccccc1-c1cc(C(=O)N[C@@H](CCN2CCCC(F)(F)C2)CC(=O)Nc2nccs2)nn1C1CCCC1` [compound 428, (3S)-3-({1-cyclopentyl-5-[2-(1,1-difluoroethyl)phenyl]-1H-pyrazol-3-yl}formamido)-5-(3,3-difluoropiperidin-1-yl)-N-(1,3-thiazol-2-yl)pentanamide], the EC50 is 7.5 nM. In the case of `O=C(C[C@H](CCN1CCCC(F)(F)C1)NC(=O)c1cc(-c2ccccc2Cl)n(C2CCCC2)n1)Nc1nccs1` [compound 429, (3S)-3-{[5-(2-chlorophenyl)-1-cyclopentyl-1H-pyrazol-3-yl]formamido}-5-(3,3-difluoropiperidin-1-yl)-N-(1,3-thiazol-2-yl)pentanamide], the EC50 is 6.1 nM.

Regarding `O=C(C[C@H](CCN1CCC(F)(F)CC1)NC(=O)c1cc(-c2ccccc2C(F)(F)F)n(C2CCCC2)n1)Nc1nccs1` [compound 430, (3S)-3-({1-cyclopentyl-5-[2-(trifluoromethyl)phenyl]-1H-pyrazol-3-yl}formamido)-5-(4,4-difluoropiperidin-1-yl)-N-(1,3-thiazol-2-yl)pentanamide], the EC50 worked out at 17.5 nM. Turning to `CN(C(=O)C[C@H](CCN1CCCC(F)(F)C1)NC(=O)c1cc(-c2ccccc2C(F)(F)F)n(C2CCCC2)n1)c1nccs1` [compound 431, (3S)-3-({1-cyclopentyl-5-[2-(trifluoromethyl)phenyl]-1H-pyrazol-3-yl}formamido)-5-(3,3-difluoropiperidin-1-yl)-N-methyl-N-(1,3-thiazol-2-yl)pentanamide], the EC50 was found to be 22.5 nM. The value for `CC(F)(F)c1ccccc1-c1cc(C(=O)N[C@@H](CCN2CCCC(F)(F)C2)CC(=O)O)nn1C1CCCC1` [compound 432, (3S)-3-({1-cyclopentyl-5-[2-(1,1-difluoroethyl)phenyl]-1H-pyrazol-3-yl}formamido)-5-(3,3-difluoropiperidin-1-yl)pentanoic acid] was 16 nM; that for `O=C(O)C[C@H](CCN1CCCC(F)(F)C1)NC(=O)c1cc(-c2ccccc2Cl)n(C2CCCC2)n1` [compound 433, (3S)-3-{[5-(2-chlorophenyl)-1-cyclopentyl-1H-pyrazol-3-yl]formamido}-5-(3,3-difluoropiperidin-1-yl)pentanoic acid] was 151 nM; that for `O=C(C[C@H](CCN1CCCCC1)NC(=O)c1cc(-c2ccsc2C(F)(F)F)n(C2CCCC2)n1)NC1CCC1` [compound 434] was 641 nM.

The values are drawn from patent US11535630B2, “Apelin receptor (APJ) agonists and uses thereof” (Research Triangle Institute, priority 2015, dated 2022).
